According to patent US9513299B2, “Methods for the detection and diagnosis of malaria using an electrochemical sensor” (EMPIRE TECHNOLOGY DEVELOPMENT LLC, priority 2010, dated 2016):
Entries after “also recorded” stand apart in the source; their conditions may differ.

How the values were obtained:
Format in all cases: biochemical
[1] = target: T1, hemoglobin samples from malaria patients (Malaria-Infected HbA0) (Homo sapiens, UniProt P68871+P69905); assay: Electrocatalytic activity of immobilized hemoglobin from whole blood in the presence of allosteric modulators (Example 4); conditions: change after adding modulator; IHP 150 μM, 2,3-DPG 2 mM; 85 mM H2O2
T1 construct: Hemoglobin from whole blood of test subjects is immobilized to the surface of electrodes; from tissue; host or cells: whole blood of malaria patients
Method: (§1) The assay of this example is illustrated in FIG. 8. Hemoglobin from whole blood of test subjects is immobilized to the surface of electrodes in two separate reaction cells as described in Example 1. Hydrogen peroxide at a final concentration of 85 mM is added in PBS to monitor the electrocatalytic activity for the immobilized protein. All the experiments are performed with the setup described above. The potential is repetitively cycled (3 scans) from −0.5 to 0.5 V vs. Ag/AgCl at a scan rate of 100 mV s^−1. This device is linked to a computer to record the current.
(§2) Next, inositol hexaphosphate (IHP) is added to one of the reaction cells at a final concentration of 150 μM. IHP is used to shift the tetramer/dimer equilibrium completely towards dimer. The effects are visualized through electrochemical measurements when the potential is repetitively cycled (3 scans) from −0.5 to 0.5 V vs. Ag/AgCl at a scan rate of 100 mV s^−1.
(§3) 2,3 diphosphoglycerate (2,3-DPG) is added to the second reaction cell at a final concentration of 2 mM. The stabilization of the immobilized HbA0 by 2,3-DPG, will result in higher electrocatalytic activity than normal due to the presence of more tetrameric protein molecules.

[2] = target: T2, hemoglobin samples from healthy subjects (Homo sapiens, UniProt P68871+P69905); assay: as above; conditions: after addition of IHP 150 μM or 2,3-DPG 2 mM; 85 mM H2O2
T2 construct: Hemoglobin from whole blood of test subjects is immobilized to the surface of electrodes; from tissue; host or cells: whole blood of healthy subjects
Method: as §1, §2, §3

human hemoglobin (HbA0) = target: T3, human hemoglobin (HbA0) (Homo sapiens, UniProt P68871+P69905); assay: Peroxidase (electrocatalytic) activity of hemoglobin immobilized on nickel coated electrode, cyclic voltammetry with H2O2; conditions: for peroxidase activity of immobilized HbA0: IHP 150 μM or 2,3-DPG 2 mM, versus hemoglobin control (FIG. 5); for peroxidase activity of immobilized HbA0 / Electrocatalytic Activity in Healthy HbA0: 85 mM H2O2; for Electrocatalytic Activity in Healthy HbA0: change after adding modulator, IHP 150 μM, 2,3-DPG 2 mM
T3 construct: purchased Sigma chemicals H-267
Method: Crystal ferrous human hemoglobin (HbA0) was obtained from Sigma chemicals (H-267). The stock solution was prepared by dissolving 5 mg HbA0 in one milliliter of 0.05 M phosphate buffered saline (pH 7.2) (Sigma chemicals).
For the electrochemical experiments we used a computer controlled Autolab (PGSTAT) modular electrochemical system (Eco Chemie Ultecht, The Netherlands) that was operated with GPES software (Eco Chemie). All experiments were performed in a conventional three-electrode system cell with an Ag/AgCl reference electrode (BAST), a Pt wire as counter electrode, and a nickel coated chip as working electrode at ambient room temperature (21° C.).
Cyclic voltammetry was used for the immobilization of hemoglobin onto nickel coated electrodes following a similar approach as Salimi et al. To immobilize hemoglobin on the electrode surface, the electrodes were immersed in fresh 0.05 M phosphate buffer solution (pH 7.2) containing 5 mg ml-1 hemoglobin and the potential was repetitively cycled (30 scans) from 1 to −0.5 V vs. Ag/AgCI at a scan rate of 100 mV s^−1. After immobilization, the chips were washed thoroughly with phosphate buffer and subsequently subjected to cyclovoltammetric measurements in the presence of 0-8 M urea.
After hemoglobin immobilization the chips were incubated in presence of 0-8 M urea for 30 min. Hydrogen peroxide (85 mM) was added to monitor the peroxidase activity change for the unfolded protein. All the experiments were performed with the setup described for electrochemical measurements. The potential was repetitively cycled (3 scans) from −0.5 to 0.5 V vs. Ag/AgCI at a scan rate of 100 mV s^−1. In a control experiment the same electrochemical measurements were performed on a reference chip without immobilized hemoglobin.
In a control experiment, after the immobilization of hemoglobin on the chip, the tetramer dimer equilibrium was shifted towards dimer by inositol hexaphosphate at a final concentration of 150 μM and electrochemical measurements were performed. The potential was repetitively cycled (3 scans) from −0.5 to 0.5 V vs. Ag/AgCI at a scan rate of 100 mV s^−1 as described before. The peroxidase activity of hemoglobin was also measured under this condition by adding 85 mM hydrogen peroxide. In another control experiment, the same electrochemical and peroxidase activity measurements were performed on immobilized hemoglobin in presence of the tetramer stabilizer 2,3-DPG at a final concentration of 2 mM.

T3 sequence (P69905 2-142 limits assumed): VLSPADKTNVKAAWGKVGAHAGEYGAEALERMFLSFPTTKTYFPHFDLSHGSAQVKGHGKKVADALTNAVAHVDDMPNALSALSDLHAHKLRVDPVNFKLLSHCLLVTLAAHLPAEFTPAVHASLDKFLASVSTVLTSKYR
T3 sequence (P68871 2-147 limits assumed): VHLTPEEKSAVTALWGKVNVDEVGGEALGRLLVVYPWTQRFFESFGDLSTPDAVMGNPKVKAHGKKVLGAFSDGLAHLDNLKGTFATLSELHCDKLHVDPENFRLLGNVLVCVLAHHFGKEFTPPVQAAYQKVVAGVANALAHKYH
T1 sequence (P69905 2-142): as the sequence (P69905 2-142 limits assumed) above
T1 sequence (P68871 2-147): as the sequence (P68871 2-147 limits assumed) above
T2 sequence (P69905 2-142 limits assumed): as the sequence (P69905 2-142 limits assumed) above
T2 sequence (P68871 2-147 limits assumed): as the sequence (P68871 2-147 limits assumed) above

Row | current measured at the electrode surface, hemoglobin samples from healthy subjects [2] | peroxidase activity of immobilized HbA0 (human hemoglobin (HbA0)) | Electrocatalytic Activity in Healthy HbA0 (human hemoglobin (HbA0)) | electrochemical current (peroxidase activity of hemoglobin immobilized chip) (human hemoglobin (HbA0); 0-8 M urea, 30 min incubation, 85 mM H2O2 (FIG. 4)) | Structure (SMILES) | Electrocatalytic Activity in Malaria-Infected HbA0 [1]
1 | decrease | decrease | Decrease | – | O=P(O)(O)O[C@H]1[C@H](OP(=O)(O)O)[C@@H](OP(=O)(O)O)[C@H](OP(=O)(O)O)[C@@H](OP(=O)(O)O)[C@H]1OP(=O)(O)O [IHP, inositol hexaphosphate] | not be a significant change; also recorded: No change
2 | – | – | – | decrease | NC(N)=O [urea] | –
3 | increase | increased | Increase | – | O=C(O)C(COP(=O)(O)O)OP(=O)(O)O (stereo not drawn) [2,3-DPG, 2,3-diphosphoglycerate] | not be a significant change; also recorded: No change
